Test results published in patent US9457004B2, “Opsin-binding ligands, compositions and methods of use” (priority 2011, dated 2016).

System: P23H opsin
Experiment: Rhodopsin purification and regeneration (P23H cells treated with compound, regenerated with 9-cis-retinal, 480-500 nm absorbance)
Settings: FIG. 1; P23H opsin treated with 20 μM during mutant protein production, relative to vehicle (DMSO) alone

## CC(=O)/C=C/C1=C(C)CCCC1(C)C [β-ionone, reference compound]
  regeneration of 500 nm absorbing pigment upon treatment with retinal: increase
